O=c1cc(-c2ccccc2)oc2c1ccc1ccccc12
Details	solubility (mole fraction)
in 1,4-dioxane, 288.15 K	0.0128
in 1,4-dioxane, 293.15 K	0.0158
in 1,4-dioxane, 298.15 K	0.019
in 1,4-dioxane, 303.15 K	0.0223
in 1,4-dioxane, 308.15 K	0.0259
in 1,4-dioxane, 313.15 K	0.0307
in 1,4-dioxane, 318.15 K	0.0363
in acetone, 273.15 K	0.00209
in acetone, 278.15 K	0.00273
in acetone, 283.15 K	0.00326
in acetone, 288.15 K	0.00392
in acetone, 293.15 K	0.00466
in acetone, 298.15 K	0.00546
in acetone, 303.15 K	0.00636
in acetone, 308.15 K	0.00736
in acetone, 313.15 K	0.00846
in acetone, 318.15 K	0.00963
in acetonitrile, 273.15 K	0.000628
in acetonitrile, 278.15 K	0.000846
in acetonitrile, 283.15 K	0.00105
in acetonitrile, 288.15 K	0.00126
in acetonitrile, 293.15 K	0.0015
in acetonitrile, 298.15 K	0.00176
in acetonitrile, 303.15 K	0.00204
in acetonitrile, 308.15 K	0.00242
in acetonitrile, 313.15 K	0.00291
in acetonitrile, 318.15 K	0.0034
in cyclohexane, 283.15 K	0.000138
in cyclohexane, 288.15 K	0.000189
in cyclohexane, 293.15 K	0.000246
in cyclohexane, 298.15 K	0.00031
in cyclohexane, 303.15 K	0.000391
in cyclohexane, 308.15 K	0.000477
in cyclohexane, 313.15 K	0.000573
in cyclohexane, 318.15 K	0.000694
in ethanol, 273.2 K	0.000306
in ethanol, 278.2 K	0.000475
in ethanol, 283.2 K	0.000677
in ethanol, 288.2 K	0.000892
in ethanol, 293.2 K	0.00113
in ethanol, 298.2 K	0.00136
in ethanol, 303.2 K	0.00163
in ethanol, 308.2 K	0.00197
in ethanol, 313.2 K	0.00235
in ethanol, 318.2 K	0.00277
in ethyl acetate, 273.15 K	0.00271
in ethyl acetate, 278.15 K	0.00331
in ethyl acetate, 283.15 K	0.00391
in ethyl acetate, 288.15 K	0.00461
in ethyl acetate, 293.15 K	0.00532
in ethyl acetate, 298.15 K	0.00614
in ethyl acetate, 303.15 K	0.0071
in ethyl acetate, 308.15 K	0.00824
in ethyl acetate, 313.15 K	0.00948
in ethyl acetate, 318.15 K	0.0109
in isobutanol, 273.15 K	0.000861
in isobutanol, 278.15 K	0.00118
in isobutanol, 283.15 K	0.00153
in isobutanol, 288.15 K	0.0019
in isobutanol, 293.15 K	0.00231
in isobutanol, 298.15 K	0.00279
in isobutanol, 303.15 K	0.00331
in isobutanol, 308.15 K	0.00396
in isobutanol, 313.15 K	0.00475
in isobutanol, 318.15 K	0.00554
in isopropanol, 273.2 K	0.000474
in isopropanol, 278.2 K	0.000676
in isopropanol, 283.2 K	0.00085
in isopropanol, 288.2 K	0.00105
in isopropanol, 293.2 K	0.00127
in isopropanol, 298.2 K	0.00153
in isopropanol, 303.2 K	0.00181
in isopropanol, 308.2 K	0.0022
in isopropanol, 313.2 K	0.00265
in isopropanol, 318.2 K	0.00313
in methanol, 273.2 K	0.000712
in methanol, 278.2 K	0.000934
in methanol, 283.2 K	0.00119
in methanol, 288.2 K	0.00144
in methanol, 293.2 K	0.00171
in methanol, 298.2 K	0.00203
in methanol, 303.2 K	0.00238
in methanol, 308.2 K	0.00277
in methanol, 313.2 K	0.00335
in methanol, 318.2 K	0.00398
in n-butanol, 273.15 K	0.00106
in n-butanol, 278.15 K	0.00149
in n-butanol, 283.15 K	0.00194
in n-butanol, 288.15 K	0.00244
in n-butanol, 293.15 K	0.00291
in n-butanol, 298.15 K	0.00346
in n-butanol, 303.15 K	0.00412
in n-butanol, 308.15 K	0.00487
in n-butanol, 313.15 K	0.00575
in n-butanol, 318.15 K	0.00673
in n-propanol, 273.2 K	0.000773
in n-propanol, 278.2 K	0.00105
in n-propanol, 283.2 K	0.0014
in n-propanol, 288.2 K	0.00178
in n-propanol, 293.2 K	0.00218
in n-propanol, 298.2 K	0.00261
in n-propanol, 303.2 K	0.0031
in n-propanol, 308.2 K	0.00364
in n-propanol, 313.2 K	0.00424
in n-propanol, 318.2 K	0.005
in toluene, 273.15 K	0.00423
in toluene, 278.15 K	0.00517
in toluene, 283.15 K	0.00623
in toluene, 288.15 K	0.00735
in toluene, 293.15 K	0.00862
in toluene, 298.15 K	0.01
in toluene, 303.15 K	0.0116
in toluene, 308.15 K	0.0136
in toluene, 313.15 K	0.0155
in toluene, 318.15 K	0.0178

— BigSolDB 2.1
